Data as given in PubChem BioAssay AID248 (DTP/NCI, 2004).
Inconclusive results and toxic doses are left out. No stated cut-off is given here; in the data, active means T/C of 150% or more; inactive means T/C below 125%.

Test system: L1210 leukemia ip in BDF1 mice, survival T/C
Experiment: NCI In Vivo Anticancer Drug Screen. Data for tumor model L1210 Leukemia (intraperitoneal) in B6D2F1 (BDF1) mice
Conditions: endpoint: mean survival time, higher = longer survival
Method in brief: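 Ratio derived from survival: compound-dosed mice over vehicle-dosed mice, all bearing a transplantable tumor.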

[1] = dose: 100.0 mg/kg/injection, schedule: Q04DX003 (ip), vehicle: saline
[2] = dose: 200.0 mg/kg/injection, schedule: Q04DX003 (ip), vehicle: saline
[3] = dose: 400.0 mg/kg/injection, schedule: Q04DX003 (ip), vehicle: saline
[4] = dose: 100.0 mg/kg/injection, schedule: Q04DX002 (ip), vehicle: saline with Tween-80
[5] = dose: 100.0 mg/kg/injection, schedule: Q04DX003 (ip), vehicle: saline with Tween-80
[6] = dose: 100.0 mg/kg/injection, schedule: Q04DX003 (ip), vehicle: Klucel (hydroxypropylcellulose) (HPC)
[7] = dose: 200.0 mg/kg/injection, schedule: Q04DX003 (ip), vehicle: Klucel (hydroxypropylcellulose) (HPC)
[8] = dose: 400.0 mg/kg/injection, schedule: Q04DX003 (ip), vehicle: Klucel (hydroxypropylcellulose) (HPC)
[9] = dose: 100.0 mg/kg/injection, schedule: Q01DX001 (ip), vehicle: saline
[10] = dose: 200.0 mg/kg/injection, schedule: Q01DX001 (ip), vehicle: saline
[11] = dose: 100.0 mg/kg/injection, schedule: Q04DX002 (ip), vehicle: Klucel (hydroxypropylcellulose) (HPC)
[12] = dose: 200.0 mg/kg/injection, schedule: Q04DX002 (ip), vehicle: Klucel (hydroxypropylcellulose) (HPC)
[13] = dose: 400.0 mg/kg/injection, schedule: Q04DX002 (ip), vehicle: Klucel (hydroxypropylcellulose) (HPC)
[14] = dose: 200.0 mg/kg/injection, schedule: Q04DX003 (ip), vehicle: saline with Tween-80
[15] = dose: 50.0 mg/kg/injection, schedule: Q01DX009 (ip), vehicle: Klucel (hydroxypropylcellulose) (HPC)
[16] = dose: 100.0 mg/kg/injection, schedule: Q01DX009 (ip), vehicle: Klucel (hydroxypropylcellulose) (HPC)
[17] = dose: 200.0 mg/kg/injection, schedule: Q01DX009 (ip), vehicle: Klucel (hydroxypropylcellulose) (HPC)
[18] = dose: 100.0 mg/kg/injection, schedule: Q01DX009 (ip), vehicle: saline
[19] = dose: 200.0 mg/kg/injection, schedule: Q01DX009 (ip), vehicle: saline
[20] = dose: 400.0 mg/kg/injection, schedule: Q01DX009 (ip), vehicle: saline
[21] = dose: 100.0 mg/kg/injection, schedule: Q01DX009 (ip), vehicle: saline with Tween-80

Measured: T/C

CC(/C=N/N(C)C(=N)N)=N\N(C)C(=N)N
inactive: dose: 15.0 mg/kg/injection, schedule: Q01DX Z (ip), vehicle: saline 88 % of control | dose: 30.0 mg/kg/injection, schedule: Q01DX Z (ip), vehicle: saline 103 % of control | dose: 60.0 mg/kg/injection, schedule: Q01DX Z (ip), vehicle: saline 98 % of control | dose: 120.0 mg/kg/injection, schedule: Q01DX Z (ip), vehicle: saline 102 % of control | dose: 120.0 mg/kg/injection, schedule: Q01DX Z (oral), vehicle: saline 103 % of control | dose: 240.0 mg/kg/injection, schedule: Q01DX Z (oral), vehicle: saline 97 % of control | dose: 480.0 mg/kg/injection, schedule: Q01DX Z (oral), vehicle: saline 106 % of control | dose: 960.0 mg/kg/injection, schedule: Q01DX Z (oral), vehicle: saline 113 % of control

O=C(Nc1ccccc1)OC1CC=CC1
inactive: [1] 90 % of control | [2] 92 % of control | [3] 103 % of control

CC(C)=CCOC1=CC(=O)C(=O)c2ccccc21
inactive: dose: 25.0 mg/kg/injection, schedule: Q04DX002 (ip), vehicle: saline with Tween-80 87 % of control | dose: 25.0 mg/kg/injection, schedule: Q04DX003 (ip), vehicle: saline with Tween-80 94 % of control | dose: 50.0 mg/kg/injection, schedule: Q04DX002 (ip), vehicle: saline with Tween-80 95 % of control | dose: 50.0 mg/kg/injection, schedule: Q04DX003 (ip), vehicle: saline with Tween-80 93 % of control | [4] 95 % of control | [5] 99 % of control

CCN(c1ccc2c(c1)C(=O)c1ccccc1-2)S(=O)(=O)c1ccc(C)cc1
inactive: [6] 96 % of control | [7] 98 % of control | [8] 98 % of control

COc1ccc(OC)c2c(=O)cc(C(=O)O)[nH]c12
inactive: dose: 50.0 mg/kg/injection, schedule: Q01DX001 (ip), vehicle: saline 98 % of control | [9] 97 % of control | [10] 95 % of control

CCOC(=O)c1ccc(Nc2sc(C(=O)c3cccc([N+](=O)[O-])c3)c(N)c2C#N)cc1
inactive: [11] 101 % of control | [12] 92 % of control | [13] 92 % of control

Cc1cc(I)ccc1NC(=S)Nc1ccccc1F
inactive: [5] 93 % of control | [14] 105 % of control

Cc1ccc(C)c(NC(=O)Oc2ccc(F)cc2Cl)c1
inactive: [15] 91 % of control | [16] 90 % of control | [6] 94 % of control | [17] 87 % of control | [7] 105 % of control

O=C(Nc1ccc(F)cc1)Nc1cccc(C(=O)O)c1
inactive: [16] 96 % of control | [6] 96 % of control | [17] 107 % of control | [7] 100 % of control | dose: 400.0 mg/kg/injection, schedule: Q01DX009 (ip), vehicle: Klucel (hydroxypropylcellulose) (HPC) 95 % of control | [8] 105 % of control

C[N+](C)(C)CC1CCCC1C[N+](C)(C)C (configuration not stated)
inactive: dose: 50.0 mg/kg/injection, schedule: Q04DX003 (ip), vehicle: saline 110 % of control | [1] 96 % of control | [2] 102 % of control | [3] 90 % of control

CSc1n[nH]c(/N=N/N(C)C)c1C(N)=O
inactive: [6] 99 % of control | [7] 103 % of control | [8] 111 % of control

CCOC(=O)c1ccc(NC(=O)Nc2cc(Cl)ccc2OC)cc1
inactive: [18] 106 % of control | [1] 109 % of control | [19] 92 % of control | [2] 97 % of control | [20] 92 % of control | [3] 92 % of control

O=C(CCCCl)CC(O)(C(F)(F)Cl)C(F)(F)Cl
inactive: [5] 104 % of control | [14] 102 % of control

Cn1c(=O)c2c(ncn2CCO)n(C)c1=O (tested in a mixture with another compound)
inactive: [21] 89 % of control | [1] 103 % of control | dose: 200.0 mg/kg/injection, schedule: Q01DX009 (ip), vehicle: saline with Tween-80 94 % of control | [2] 97 % of control | dose: 400.0 mg/kg/injection, schedule: Q01DX009 (ip), vehicle: saline with Tween-80 87 % of control | [3] 108 % of control

CCO/C=C(/C(=O)OCC)C(=O)C(OCC)OCC
inactive: [18] 101 % of control | [1] 95 % of control | [19] 101 % of control | [2] 97 % of control | [20] 98 % of control | [3] 94 % of control

FC(F)(F)S.[Hg]
inactive: dose: 5.0 mg/kg/injection, schedule: Q01DX009 (ip), vehicle: saline 86 % of control | dose: 10.0 mg/kg/injection, schedule: Q01DX009 (ip), vehicle: saline 93 % of control

CCC(C)(NC(N)=O)c1ccccc1 (configuration not stated)
inactive: [9] 101 % of control | [10] 104 % of control

CC(CCOC(=O)c1ccccc1)=C(c1ccccc1)c1ccccc1
inactive: [11] 107 % of control | [12] 95 % of control | [13] 95 % of control

Nn1c2ccccc2c2ccccc21
inactive: [15] 103 % of control | dose: 75.0 mg/kg/injection, schedule: Q01DX001 (ip), vehicle: carboxymethylcellulose (CMC) 101 % of control | [16] 103 % of control | dose: 150.0 mg/kg/injection, schedule: Q01DX001 (ip), vehicle: carboxymethylcellulose (CMC) 104 % of control | [17] 92 % of control | dose: 300.0 mg/kg/injection, schedule: Q01DX001 (ip), vehicle: carboxymethylcellulose (CMC) 96 % of control

COc1cccc(NC(=O)Nc2ccccc2C(F)(F)F)c1
inactive: dose: 6.25 mg/kg/injection, schedule: Q01DX009 (ip), vehicle: saline with Tween-80 92 % of control | dose: 12.5 mg/kg/injection, schedule: Q01DX009 (ip), vehicle: saline with Tween-80 92 % of control | dose: 25.0 mg/kg/injection, schedule: Q01DX009 (ip), vehicle: saline with Tween-80 90 % of control | dose: 50.0 mg/kg/injection, schedule: Q01DX009 (ip), vehicle: saline with Tween-80 90 % of control | [21] 94 % of control

NC(=S)c1ncc(N)s1
inactive: [4] 92 % of control | dose: 200.0 mg/kg/injection, schedule: Q04DX002 (ip), vehicle: saline with Tween-80 100 % of control | dose: 400.0 mg/kg/injection, schedule: Q04DX002 (ip), vehicle: saline with Tween-80 120 % of control

COc1ccc(CN2CCCN(Cc3ccc(OC)cc3)C2c2ccc(NC(C)=O)cc2)cc1
inactive: dose: 100.0 mg/kg/injection, schedule: Q01DX001 (ip), vehicle: acetone 100 % of control | dose: 200.0 mg/kg/injection, schedule: Q01DX001 (ip), vehicle: acetone 100 % of control

CC12CC3CC(C)(C1)CC(SCCCCCN=C(N)CSSCC(N)=NCCCCCSC14CC5CC(C)(CC(C)(C5)C1)C4)(C3)C2
inactive: dose: 10.0 mg/kg/injection, schedule: Q04DX002 (ip), vehicle: Klucel (hydroxypropylcellulose) (HPC) 110 % of control | dose: 20.0 mg/kg/injection, schedule: Q04DX002 (ip), vehicle: Klucel (hydroxypropylcellulose) (HPC) 102 % of control | dose: 40.0 mg/kg/injection, schedule: Q04DX002 (ip), vehicle: Klucel (hydroxypropylcellulose) (HPC) 87 % of control
